Source: ChEMBL document CHEMBL4321836, “Discovery of BAY-298 and BAY-899: Tetrahydro-1,6-naphthyridine-Based, Potent, and Selective Antagonists of the Luteinizing Hormone Receptor Which Reduce Sex Hormone Levels in Vivo” (J Med Chem, 2019)
Each block holds one compound with its values, some of them ahead of it.

Key:
Rattus norvegicus [1] = experiment: Downregulation of estradiol level in proestrus staged-female rat serum at 18 mg/kg, po administered once daily for 8 days and measured by radioimmunoassay method (reference value: 125 pmol/L); assay type: functional
[2] = target: T1, Lutropin-choriogonadotropic hormone receptor (Homo sapiens, UniProt P22888); experiment: Antagonist activity at human luteinizing hormone receptor assessed as reduction in agonist-induced cAMP production preincubated for 20 mins followed by agonist solution addition after 60 mins by cell based TR-FRET assay; assay type: functional
T1 sequence (P22888 whole entry): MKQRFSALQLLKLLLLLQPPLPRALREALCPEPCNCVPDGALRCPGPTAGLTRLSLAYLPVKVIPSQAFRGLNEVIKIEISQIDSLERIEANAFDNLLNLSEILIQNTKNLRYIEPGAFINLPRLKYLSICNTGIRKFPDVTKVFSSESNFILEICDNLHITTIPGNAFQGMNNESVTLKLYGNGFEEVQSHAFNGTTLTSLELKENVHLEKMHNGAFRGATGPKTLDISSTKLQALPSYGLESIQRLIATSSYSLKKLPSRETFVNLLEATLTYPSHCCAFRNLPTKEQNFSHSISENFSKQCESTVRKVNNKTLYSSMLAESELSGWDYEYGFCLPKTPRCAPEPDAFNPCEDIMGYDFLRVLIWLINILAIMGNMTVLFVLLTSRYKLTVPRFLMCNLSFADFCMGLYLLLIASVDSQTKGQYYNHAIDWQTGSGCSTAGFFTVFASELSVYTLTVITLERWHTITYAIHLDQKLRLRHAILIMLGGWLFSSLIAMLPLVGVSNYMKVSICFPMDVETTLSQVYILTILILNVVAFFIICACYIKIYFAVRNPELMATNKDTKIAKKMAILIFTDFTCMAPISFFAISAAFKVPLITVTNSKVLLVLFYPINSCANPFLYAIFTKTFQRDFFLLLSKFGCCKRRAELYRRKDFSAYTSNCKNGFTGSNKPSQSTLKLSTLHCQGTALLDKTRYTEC

Rattus norvegicus [3] = experiment: Downregulation of estradiol level in proestrus staged-female rat serum at 72 mg/kg, po administered once daily for 8 days and measured by radioimmunoassay method (reference value: 125 pmol/L); assay type: functional
[4] = target: T1, Lutropin-choriogonadotropic hormone receptor; experiment: (§1) Negative allosteric modulation of human luteinizing hormone receptor assessed as reduction in Org 43553-induced agonist activity preincubated for 20 mins followed by 4 times EC80 of agonist addition and measured after 60 mins by cell based TR-FRET assay relative to control
[5] = target: T1, Lutropin-choriogonadotropic hormone receptor; experiment: as §1, with “Emax for glycoprotein human luteinizing hormone-induced” for “reduction in Org 43553-induced”, “activity at 0.84 nM to 17 uM” for “activity”, “100” for “4”
Rattus norvegicus [6] = experiment: Downregulation of human luteinizing hormone-induced Egr-1 mRNA expression in cetrorelix-treated iv dosed female rat after 2 hrs by Taqman probe based RT-PCR analysis; assay type: functional, organism-based
[7] = Fraction unbound in female rat at 4.5 to 72 mg/kg, po administered once daily for 8 days; assay type: ADME, organism-based; details: in vivo
Rattus norvegicus [8] = experiment: Downregulation of 0.1 ug human luteinizing hormone-induced testosterone expression in plasma of cetrorelix-treated male rat at 14 mg/kg, iv after 2 hrs by radioimmunoassay method (reference value: 33.4 nM); assay type: functional
[9] = target: Luteinizing hormone/choriogondaotropin receptor (Macaca fascicularis, UniProt F5A8F7); experiment: Antagonist activity at cynomolgus monkey luteinizing hormone receptor expressed in HEK293 cells assessed as reduction in agonist-induced cAMP production preincubated for 30 mins followed by agonist solution addition and measured after 30 mins by cell based TR-FRET assay
Luteinizing hormone/choriogondaotropin receptor, sequence (F5A8F7 whole entry): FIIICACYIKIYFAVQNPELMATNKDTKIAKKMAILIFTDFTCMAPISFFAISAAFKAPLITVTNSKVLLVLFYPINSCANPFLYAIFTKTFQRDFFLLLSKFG

[10] = target: T2, Alpha-2A adrenergic receptor (Homo sapiens) (UniProt P08913); experiment: Antagonist activity at human alpha2A adrenergic receptor expressed in Chem-1 cells at 10 uM by fluorimetric method relative to control; assay type: cell-based; design: scale not given: the % may be the effect or the level left
T2 sequence (whole entry): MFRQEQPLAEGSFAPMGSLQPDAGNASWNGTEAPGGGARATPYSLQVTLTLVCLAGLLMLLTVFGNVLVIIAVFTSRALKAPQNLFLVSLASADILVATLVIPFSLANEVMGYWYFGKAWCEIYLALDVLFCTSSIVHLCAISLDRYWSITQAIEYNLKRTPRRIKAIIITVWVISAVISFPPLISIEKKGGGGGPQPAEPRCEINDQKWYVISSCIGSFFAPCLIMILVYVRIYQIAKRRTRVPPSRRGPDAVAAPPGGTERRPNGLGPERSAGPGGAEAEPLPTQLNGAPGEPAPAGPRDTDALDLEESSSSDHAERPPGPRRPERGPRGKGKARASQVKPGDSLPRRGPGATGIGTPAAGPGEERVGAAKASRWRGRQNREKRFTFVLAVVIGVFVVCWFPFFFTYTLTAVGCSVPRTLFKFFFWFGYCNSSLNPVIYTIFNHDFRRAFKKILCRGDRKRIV

[11] = target: D(1A) dopamine receptor (Homo sapiens) (UniProt P21728); experiment: Antagonist activity at human D1 receptor expressed in CHO-K1 cells at 10 uM after 30 mins HTRF assay relative to control; assay type: cell-based; design: scale not given: the % may be the effect or the level left
D(1A) dopamine receptor (Homo sapiens), sequence (P21728 whole entry): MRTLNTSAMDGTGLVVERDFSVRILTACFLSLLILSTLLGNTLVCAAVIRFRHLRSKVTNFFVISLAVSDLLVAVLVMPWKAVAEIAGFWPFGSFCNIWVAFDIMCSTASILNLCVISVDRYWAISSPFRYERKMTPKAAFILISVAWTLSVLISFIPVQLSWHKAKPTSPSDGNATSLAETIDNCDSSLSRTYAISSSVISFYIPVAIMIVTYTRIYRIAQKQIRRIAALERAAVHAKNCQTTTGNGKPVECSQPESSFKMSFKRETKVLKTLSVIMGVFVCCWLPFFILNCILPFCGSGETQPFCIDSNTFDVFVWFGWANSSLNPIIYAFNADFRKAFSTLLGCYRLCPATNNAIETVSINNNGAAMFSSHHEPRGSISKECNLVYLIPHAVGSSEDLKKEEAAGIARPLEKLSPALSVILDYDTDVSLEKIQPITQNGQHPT

[12] = target: T1, Lutropin-choriogonadotropic hormone receptor; experiment: as §1, with “Emax for glycoprotein human luteinizing hormone-induced” for “reduction in Org 43553-induced”, “activity at 0.84 nM to 17 uM” for “activity”, “1” for “4”
[13] = target: T1, Lutropin-choriogonadotropic hormone receptor; experiment: Negative allosteric modulation of human luteinizing hormone receptor assessed as Emax for Org 43553-induced agonist activity at 0.84 nM to 17 uM preincubated for 20 mins followed by 10 times EC80 of agonist addition and measured after 60 mins by cell based TR-FRET assay relative to control
[14] = target: T1, Lutropin-choriogonadotropic hormone receptor; experiment: as §1, with “glycoprotein human luteinizing hormone-induced” for “Org 43553-induced”, “10” for “4”
[15] = target: T1, Lutropin-choriogonadotropic hormone receptor; experiment: Negative allosteric modulation of human luteinizing hormone receptor assessed as reduction in Org 43553-induced agonist activity preincubated for 20 mins followed by 10 times EC80 of agonist addition and measured after 60 mins by cell based TR-FRET assay relative to control
Rattus norvegicus [16] = experiment: Downregulation of human luteinizing hormone-induced testosterone expression in plasma of cetrorelix-treated iv dosed male rat at after 2 hrs by radioimmunoassay method; assay type: functional, organism-based
[17] = target: T1, Lutropin-choriogonadotropic hormone receptor; experiment: as §1, with “glycoprotein human luteinizing hormone-induced” for “Org 43553-induced”, “16” for “4”
Rattus norvegicus [18] = experiment: Downregulation of human luteinizing hormone-induced COX-2 mRNA expression in cetrorelix-treated iv dosed female rat after 2 hrs by Taqman probe based RT-PCR analysis; assay type: functional, organism-based
[19] = target: T3, Prostaglandin E2 receptor EP3 subtype (Homo sapiens) (UniProt P43115); experiment: Agonist activity at human EP3 receptor expressed in […] cells at 10 uM by spectrophotometric method relative to control; assay type: cell-based
T3 sequence (whole entry): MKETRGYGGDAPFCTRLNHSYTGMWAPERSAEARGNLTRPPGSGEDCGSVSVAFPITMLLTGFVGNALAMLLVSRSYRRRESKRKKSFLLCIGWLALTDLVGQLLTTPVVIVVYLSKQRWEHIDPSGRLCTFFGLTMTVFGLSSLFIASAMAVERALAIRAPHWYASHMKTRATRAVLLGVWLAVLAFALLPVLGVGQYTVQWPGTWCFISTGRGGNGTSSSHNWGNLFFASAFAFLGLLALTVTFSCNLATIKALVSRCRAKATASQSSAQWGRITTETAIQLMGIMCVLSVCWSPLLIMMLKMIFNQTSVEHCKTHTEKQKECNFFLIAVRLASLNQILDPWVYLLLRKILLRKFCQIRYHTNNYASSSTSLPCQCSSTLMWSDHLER

[20] = target: T1, Lutropin-choriogonadotropic hormone receptor; experiment: as §1, with “glycoprotein human luteinizing hormone-induced” for “Org 43553-induced”
Rattus norvegicus [21] = experiment: Downregulation of human luteinizing hormone-induced progesterone expression in plasma of cetrorelix-treated iv dosed female rat after 2 hrs by radioimmunoassay method; assay type: functional, organism-based
[22] = target: T1, Lutropin-choriogonadotropic hormone receptor; experiment: Negative allosteric modulation of human luteinizing hormone receptor assessed as Emax for Org 43553-induced agonist activity at 0.84 nM to 17 uM preincubated for 20 mins followed by 1 times EC80 of agonist addition and measured after 60 mins by cell based TR-FRET assay relative to control
[23] = target: T1, Lutropin-choriogonadotropic hormone receptor; experiment: Negative allosteric modulation of human luteinizing hormone receptor assessed as reduction in Org 43553-induced agonist activity preincubated for 20 mins followed by 1 times EC80 of agonist addition and measured after 60 mins by cell based TR-FRET assay relative to control
Rattus norvegicus [24] = experiment: Effect on folliculo-genesis in 4 day cycle of po dosed normally cycling female rat assessed as induction of cycle arrest in diestrus stage by observing vaginal smears administered once daily for 8 days; assay type: functional, organism-based

- IC50 [2]: 0.096 µM
- IC50 [4]: 1.2 µM
- Emax [5]: 98%
- fraction unbound at 192 h [7]: 0.0024
- IC50 [9]: 0.078 µM
- Activity [10]: < 70%
- Activity [11]: < 70%
- Emax [12]: 99%
- Emax [13]: 102%
- IC50 [14]: 2.2 µM
- IC50 [15]: 1.5 µM
- IC50 [17]: 2.2 µM
- Activity [19]: < 70%
- IC50 [20]: 0.2 µM
- Emax [22]: 104%
- IC50 [23]: 0.65 µM
Compound: O=C(Nc1ccc(Oc2ccc(F)cc2)cc1)N1CCc2ncccc2[C@@H]1c1ccc(Cl)cc1
- Activity (Rattus norvegicus [1]): 70 pmol/L
- Activity (Rattus norvegicus [3]): <39 pmol/L
- Activity (Rattus norvegicus [6]): Dose-dependent effect
- Activity (Rattus norvegicus [8]): 2.5 nM
- Activity (Rattus norvegicus [16]): Dose-dependent effect
- Activity (Rattus norvegicus [18]): Dose-dependent effect
- Activity (Rattus norvegicus [21]): Dose-dependent effect
- Activity (Rattus norvegicus [24]): Dose-dependent effect

- IC50 [2]: 0.185 µM
- Activity [10]: < 70%
- Activity [11]: < 70%
- Activity [19]: < 70%
Compound: O=C(Nc1cnc(Oc2ccc(F)cc2)nc1)N1CCc2ncccc2[C@@H]1c1ccc(F)cc1 [BAY-899]
